In patent US8809372B2, “Pyridine derivatives” (Endo Pharmaceuticals, Inc., priority 2011, dated 2014):

Assays:
[1] = target: T1, human CYP17 (Homo sapiens, UniProt P05093); test: CYP17 inhibition assay in yeast microsomes overexpressing human CYP17; type: biochemical; settings: yeast microsomes expressing human CYP17
T1 construct: purchased Premas Biotech, India; host or cells: yeast (microsomes)
T1 sequence (P05093 1-508): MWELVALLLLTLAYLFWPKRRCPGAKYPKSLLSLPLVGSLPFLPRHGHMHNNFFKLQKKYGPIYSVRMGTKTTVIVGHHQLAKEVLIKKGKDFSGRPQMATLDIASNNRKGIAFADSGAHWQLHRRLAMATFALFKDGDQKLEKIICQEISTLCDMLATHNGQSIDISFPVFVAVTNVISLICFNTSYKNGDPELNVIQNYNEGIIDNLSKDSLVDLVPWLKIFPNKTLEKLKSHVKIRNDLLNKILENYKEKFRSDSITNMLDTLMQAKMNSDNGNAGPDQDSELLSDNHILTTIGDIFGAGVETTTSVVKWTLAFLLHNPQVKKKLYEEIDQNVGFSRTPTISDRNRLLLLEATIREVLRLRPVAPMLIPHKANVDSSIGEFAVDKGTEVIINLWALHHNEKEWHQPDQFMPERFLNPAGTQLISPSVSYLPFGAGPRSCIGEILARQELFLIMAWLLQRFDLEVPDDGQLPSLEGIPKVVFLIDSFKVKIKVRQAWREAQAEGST
Protocol: CYP17 Inhibition Assay in Rat Testicular Microsomes (Rat CYP17) or Yeast Microsome Overexpressing Human CYP17
1. NADPH (Sigma): A working stock was prepared by adding 25 μL of 6.5 mM NADPH in each tube. The final concentration of NADPH used in the assay was 325 μM.
2. Potassium Phosphate Buffer: One molar (1M) solutions of K2HPO4 and KH2PO4 were prepared. Eight mL of the 1 M KH2PO4 and 1.98 mL of the 1 M K2HPO4 were combined and the pH was adjusted to 7.4.
3. ^3H3-17α-hydroxypregnenolone (American Radiolabeled Chemicals, Inc., stock 1 μCi/μL): A 1:1 dilution of ^3H3-17α-hydroxypregnenolone in ethanol was prepared by combining 100 μL ^3H3-17α-hydroxypregnenolone+100 μL ethanol for one complete 96 well plate. For the reaction, 2 μL of the diluted ^3H3-17α-hydroxypregnenolone was added in each tube, i.e., 1 μCi/reaction. 4. Microsome Isolation Buffer: The microsome isolation buffer was prepared by combining 250 mM Sucrose, 5 mM EDTA, 10 mM Tris HCl, 4 mM DTT, and adjusting to pH 7.4. 5. TEG Buffer: The TEG buffer was prepared by combining 50 mM Tris HCl, 1 mM EDTA, and 20% Glycerol. 6. Rat Testicular Microsomes: Rat testis tissue was collected and disrupted with 30 strokes of a glass homogenizer on ice with 250 μL of microsome isolation buffer, followed by centrifugation at 10,000 g for 10 minutes at 4° C. The supernatant was collected and centrifuged at 100,000 g for 45 minutes at 4° C. The pellet was dissolved in TEG Buffer and the protein was quantified. The homogenized microsome samples were then frozen at −80° C. • 7. Yeast Microsomes which overexpress the human CYP17 enzyme were obtained from Premas Biotech, India.
Potassium phosphate buffer (470 μL) was prepared as described above and was added to each well of a deep well plate. The test compound was diluted using a TECAN liquid handler and 5 μL of diluted compound was transferred to each well (96 deep well/1 mL). A solution (25 μL) of 6.5 mM NADPH was added (final concentration of 325 μM in the assay). ^3H3-17α-hydroxypregnenolone (2 μL of the working stock) was added to each tube. The plates were then pre-incubated for 15 minutes at 37° C. Following the pre-incubation, either 5 μL rat testicular microsomes (150-160 μg) or 5 μL of yeast microsomes expressing human CYP17 (1.7 pmol), was added. Incubation was at 37° C. for 60 minutes in the presence of oxygen. The plates were then placed in ice and chloroform (500 μL) was added, mixed well and incubated at 4° C. for 20 minutes. The plates were then centrifuged at 1000 rpm for 15 minutes at 4° C.
A portion (300 μL) of the aqueous solution was collected and mixed with a 5% aqueous suspension of activated charcoal (300 μL). The plates were then incubated at 4° C. for 30 minutes, after which the plates were centrifuged at 1000 rpm for 15 minutes at 4° C. From this, 125 μL of the aqueous solution was collected and plated into a 96 well plate. Microscint™ 40 [125 μL, Perkin-Elmer; containing a mixture of a polymer based on alkylphenolethoxylate (20-40%), diethanolamine-phosphoric acid ester ammonium salt (10-20%), sodium dioctyl sulphosuccinate (2.5-10%), triethyl phosphate (2.5-10%), 3,6-dimethyl-4-octyne-3,6-diol (≦2.5%), a polymer based on nonylphenolethoxylate (≦2.5%), diisopropyl naphthalene isomers (40-60%), 2,5-diphenyloxazole (≦2.5%), and 9,10-dimethylanthracene] was added and mixed well. After 30 minutes of incubation, the samples were analyzed with a MicroBeta® Trilux microplate liquid scintillation counter and luminometer (Perkin-Elmer).

[2] = system: serum testosterone level; test: In vivo inhibition of testosterone production; parameters: species or system rat; settings: male rats, vs vehicle-dosed controls
Protocol: In vivo Inhibition of Testosterone Production
Male rats aged 8 to 10 weeks old were dosed orally with compounds at 10 or 30 mg/kg. Blood samples were drawn at 0.5, 3, 8, and 24 hours and were processed to plasma samples. Samples were analyzed for compound levels by LC-MS/MS method and for testosterone levels with an ELISA performed as per manufacturer's protocol (Parameter Testosterone Assay, Cat. No. KGE010, R&D systems; http://www.mdsystems.com/pdf/KGE010.pdf). The serum testosterone level was calculated from standards using GraphPad® Prism software and % inhibition at a given time was calculated by comparing the testosterone level in vehicle control animals at the same time of day.

[3] = system: prostate and seminal vesicle weights; test: In vivo reduction of prostate and seminal vesicle weights; parameters: species or system rat; settings: male rats
Protocol: In vivo Reduction of Prostate and Seminal Vesicle Weights Male rats aged 8 to 10 weeks old (5 animals per group) were dosed orally with compounds once or twice a day at 12-hour intervals for 14 days. On day 14 the animals were euthanized and organs were surgically removed for wet weight determination including the prostate, seminal vesicles and testes.

[4] = 30 mg/kg orally once a day for 14 days
[5] = 30 mg/kg orally twice a day for 14 days
[6] = 3-8 hours after a 30 mg/kg oral dose

| Structure (SMILES) | IC50 [1] | reduction of prostate weight [3, 5] | also measured |
| --- | --- | --- | --- |
| Cn1cc(-c2ccc(C(C)(O)c3ccncc3)s2)ccc1=O (stereo not drawn) [Example 15, 5-(5-(1-Hydroxy-1-(pyridin-4-yl)ethyl)thiophen-2-yl)-1-methyl-pyridin-2(1H)-one] | 201 to 10000 nM |  |  |
| CC(O)(c1ccncc1)c1cnc(-c2ccc(F)cc2)s1 (racemic) [Example 7, 1-(2-(4-Fluorophenyl)thiazol-5-yl)-1-(pyridin-4-yl)ethanol] | 50 to 200 nM |  | decrease of serum testosterone levels ([2]; 3-8 hours after a 10 mg/kg oral dose): 70-85%; reduction of prostate weight [3, 4]: about 50%; reduction of seminal vesicle weight [3, 4]: about 60% |
| CC(O)(c1ccncc1)c1nc(-c2ccc(F)cc2)no1 (single isomer, unassigned; (+)) [Example 36, (+)-1-(3-(4-fluoro-phenyl)-1,2,4-oxadiazol-5-yl)-1-(pyridin-4-yl)ethanol] | < 50 nM | about 50% |  |
| CC(O)(c1ccncc1)c1ncc(-c2ccc(F)cc2)s1 (stereo not drawn) [Example 14, 1-(5-(4-Fluorophenyl)thiazol-2-yl)-1-(pyridin-4-yl)ethanol] |  |  | decrease of serum testosterone levels [2, 6]: 60-80% |
| CC(O)(c1ccncc1)c1cnc(-c2ccc(F)cc2)s1 (single isomer, unassigned) [Example 9, 1-(2-(4-fluorophenyl)thiazol-5-yl)-1-(pyridin-4-yl)ethanol] | 50 to 200 nM |  |  |
| Cn1cc(-c2ccc(C(C)(O)c3ccncc3)s2)ccc1=O (single isomer, unassigned; (-)) [Example 17, (−)-5-(5-(1-hydroxy-1-(pyridin-4-yl)ethyl)thiophen-2-yl)-1-methylpyridin-2(1H)-one] | 50 to 200 nM | about 50% | decrease of serum testosterone levels [2, 6]: 30-60% |
| CC(O)(c1ccncc1)c1cnc(-c2ccc(F)cc2)s1 (single isomer, unassigned) [Example 8, 1-(2-(4-fluorophenyl)thiazol-5-yl)-1-(pyridin-4-yl)ethanol] | 201 to 10000 nM |  |  |
| CC(O)(c1ccncc1)c1nc(-c2ccc(F)cc2)no1 (stereo not drawn) [Example 34, 1-(3-(4-Fluorophenyl)-1,2,4-oxadiazol-5-yl)-1-(pyridin-4-yl)ethanol] |  | about 50% |  |
| COc1ccc(-c2ccc(C(C)(O)c3ccncc3)nc2)cc1 (racemic) [Example 1, 1-(5-(4-Methoxyphenyl)pyridin-2-yl)-1-(pyridin-4-yl)ethanol] | 201 to 10000 nM |  |  |
